This note sets out measurements from patent publication US20240009104A1, “PROCESS FOR EXTRACTION AND HEMI-SYNTHESIS OF PYRANOANTHOCYANINS AND SKINCARE COSMETIC FORMULATIONS CONTAINING THEM” (UNIVERSIDADE DO PORTO, priority 2021, published 2024).

Series [1] in a line: Determination of solar protection factor (SPF), spectrophotometric, Mansur equation. Type of series: physicochemical. The following applies: for SPF: 1.0 mg in 5 mL ethanol, absorbance 290-320 nm, Mansur equation. As for the experimental part: Sample preparation 1.0 mg of all samples was weighed, transferred to a 5 mL volumetric flask, diluted to volume with ethanol, followed by ultra-sonication for 5 min. The absorption spectra of samples in solution were obtained in the range of 290 to 450 nm using 1 cm quartz cell, and ethanol as a blank. The absorption data were obtained in the range of 290 to 320, every 5 nm, and 3 determinations were made at each point, followed by the application of Mansur equation.
Where CF (correction factor) is 10, EE (A) is erythmogenic effect of radiation with wavelength λ, Abs is Spectrophotometric absorbance values at wavelength λ. The obtained absorbance values are multiplied with EE (λ)×1 (λ) and then their summation is taken and multiplied with correction factor to obtain the SPF values.

The test system of another series is P. aeruginosa ATCC 27853. As to the kind of experiment: MIC/MBC broth microdilution, P. aeruginosa. The note with it: Pseudomonas aeruginosa, ATCC27853; P. aeruginosa ATCC 27853, 24 h, 0.5 to 512 μg/mL. Type of series: cell-based. As for the experimental part: (§1) Compounds/extracts were tested against the following bacterial strains: Pseudomonas aeruginosa ATCC 27853, Staphylococcus aureus ATCC 29213, Staphylococcus epidermidis ATCC 14990, Streptococcus pyogenes ATCC 19615, Micrococcus luteus ATCC 4698. Prior to each in vitro bioassay, fresh cultures were obtained for each strain using the appropriate medium and incubation conditions as follows. Staphylococcus spp. and P. aeruginosa were grown on Mueller-Hinton (MH) agar (Liofilchemsrl, Italy) for 24 h at 37° C., while M. luteus was grown in Tryptic Soy agar (TSA, Liofilchem srl, Italy) for 24 h at 30° C. and S. pyogenes on TSA with 5% defibrinated sheep blood (Thermo Fisher Scientific, USA) for 24 h at 37° C. in an atmosphere of 5% CO2.
(§2) Minimum inhibitory concentrations (MICs) of compounds/extracts were determined using a broth microdilution technique, following the recommendations of the Clinical and Laboratory Standards Institute. Briefly, fresh colonies of each strain were used to prepare the respective inocula with an optical density at 600 nm (OD600) equal to 0.1 (approximately 1^10^8 CFU/mL). For all strains, cation-adjusted Mueller-Hinton broth (MHB2, Sigma-Aldrich, USA) was used, but in the case of S. pyogenes, MBH2 was previously supplemented with 2.5% lysed horse blood (Thermo Fisher Scientific, USA). In 96-well, U-bottom, microplates, each compound was serially diluted in the respective medium from stock solutions (10 mg/mL in DMSO) to achieve in-test concentrations ranging from 0.5 to 512 μg/mL. Wells were inoculated so that the final concentration in eachwas of 5×10^5 CFU/mL. The microplates were incubated at 37° C. for 24 h. The MIC was defined as the lowest concentration of compound inhibiting the bacterial growth visible to the naked eye.

Another series relates to S. aureus ATCC 29213. As to the kind of experiment: MIC/MBC broth microdilution, S. aureus. Type of series: cell-based. The note with it: Staphylococcus aureus, ATCC29213; S. aureus ATCC 29213, 24 h, 0.5 to 512 μg/mL. As for the experimental part:
as §1, §2

Another series deals with S. pyogenes ATCC 19615. As to the kind of experiment: MIC/MBC broth microdilution, S. pyogenes. Type of series: cell-based. The note with it: Streptococcus pyogenes, ATCC19615; S. pyogenes ATCC 19615, 24 h, 0.5 to 512 μg/mL. As for the experimental part: as §1, §2
(Dilution methods test growth across graded concentrations, often in twofold steps.)

Series [2] has as its system S. epidermidis ATCC 14990. As to the kind of experiment: MIC/MBC broth microdilution, S. epidermidis. Type of series: cell-based. The note with it: Staphylococcus epidermidis, ATCC14990; S. epidermidis ATCC 14990, 24 h, 0.5 to 512 μg/mL. The method, then: as §1, §2
The next series concerns M. luteus ATCC 4698. As to the kind of experiment: MIC/MBC broth microdilution, M. luteus. Type of series: cell-based. The note with it: Micrococcus luteus, ATCC4698; M. luteus ATCC 4698, 24 h, 0.5 to 512 μg/mL. As for the experimental part:
as §1, §2

Series [3] in a line: Cytotoxicity to human fibroblasts and keratinocytes, MTT assay. Type of series: cell-based. The following applies: HaCat, HFF-1 and Heka cells, 0.78-100 μM. The method, then: For this purpose, immortalized human foreskin fibroblasts HFF-1 were grown as monolayers from passage number 9-18 and maintained at 37° C. in an atmosphere of 5% CO2. For routine maintenance, the cells were cultured in 22.1 cm^2 plates as monolayers and maintained in Dulbecco's Modified Eagle Medium (DMEM, from Cell Lines Service), supplemented with 10% fetal bovine serum (FBS, from CLS) and 1% of antibiotic/antimycotic solution (100 units/mL of penicillin, 10 mg/mL of streptomycin and 0.25 mg/mL of amphotericin B from Sigma-Aldrich, St. Louis, MO, United States). The medium was replaced every two days and the cells were harvested every two weeks.
The cytotoxicity of the anthocyanins derivatives to HFF-1, Heka, and HaCat cells was evaluated using the standard MTT assay. Briefly, cells were seeded at a density of 5×10^4 cells or 1.5×10^4 cells/well onto 96-well plates and incubated at 37° C. in a 5% CO2 atmosphere. Cells were allowed to grow for 24 h, and serially diluted solutions of the different compounds (0.78-100 μM) were added to the wells. Then, cells were incubated for 48 h at 37° C., after which wells were washed once with phosphate buffered saline solution (PBS, Sigma-Aldrich, St. Louis, MO, United States), followed by addition of 0.45 mg/mL of MTT solution to each well. Crystals were allowed to form for 2 h. […] Absorbance was read at 570 nm.

For the molecule “4-(Dimethylamino)-cinnamyl-10-vinylene-pyranomalvidin-3-glucoside [VII-B]”, the SPF in series [1] came out at 15.02 ± 0.07.
For the molecule `O=C(O)C1=Cc2c(OC3OC(CO)C(O)C(O)C3O)c(-c3ccc(O)c(O)c3)[o+]c3cc(O)cc(c23)O1` (centres unmarked) [II-A, Carboxypyranocyanidin-3-glucoside], the minimum inhibitory concentration (MIC) (against P. aeruginosa ATCC 27853; against S. aureus ATCC 29213; against S. pyogenes ATCC 19615; in series [2]; against M. luteus ATCC 4698) was more than 512 µg/mL in each case. In series [1], this molecule displayed an SPF of 20.71 ± 0.18.
In series [3], `COc1cc(-c2[o+]c3cc(O)cc4c3c(c2OC2OC(CO)C(O)C(O)C2O)C=C(C(=O)O)O4)cc(OC)c1O` (centres unmarked) [II-B, Carboxypyranomalvidin-3-glucoside] returned an IC50 at 48 h of more than 100 µM. Further, the MIC (against P. aeruginosa ATCC 27853; in the series with S. aureus ATCC 29213; with S. pyogenes ATCC 19615; in series [2]; against M. luteus ATCC 4698) was more than 512 µg/mL in each case. Besides, in series [1] (0.2 mg/mL), the “UV protection (0.2 mg/mL)” value amounted to 13.92 ± 0.04. Also, in series [1], the SPF was 13.92 ± 0.04.
`CC1=Cc2c(OC3OC(CO)C(O)C(O)C3O)c(-c3ccc(O)c(O)c3)[o+]c3cc(O)cc(c23)O1` (centres unmarked) [III-A, Methylpyranocyanidin-3-glucoside]: the MIC (against P. aeruginosa ATCC 27853; in the series on S. aureus ATCC 29213; with S. pyogenes ATCC 19615; in series [2]; against M. luteus ATCC 4698) was more than 512 µg/mL in each case. In series [1], this molecule registered an SPF of 18.53 ± 0.15.
In the case of `CN(C)c1ccc(C2=Cc3c(OC4OC(CO)C(O)C(O)C4O)c(-c4ccc(O)c(O)c4)[o+]c4cc(O)cc(c34)O2)cc1` (centres unmarked) [V-C, Pyranocyanidin-3-glucoside-(4-dimethylamino)-cinnamyl], in series [1], the SPF came to 13 ± 0.04.
Consider `COc1cc(-c2[o+]c3cc(O)cc4c3c(c2OC2OC(CO)C(O)C(O)C2O)C=C(/C=C/c2c(O)cc(O)c3c2OC(c2ccc(O)c(O)c2)C(O)C3)O4)cc(OC)c1O` (centres unmarked) [VI-B, Vinylpyranomalvidin-3-O-glucoside-cathechin], for which the SPF in series [1] is 8.35 ± 0.06.
In series [1], `CN(C)c1ccc(/C=C/C=C/C2=Cc3c(OC4OC(CO)C(O)C(O)C4O)c(-c4ccc(O)c(O)c4)[o+]c4cc(O)cc(c34)O2)cc1` (centres unmarked) [VIII-A, 4-(Dimethylamino)-cinnamyl-10-butadienylidene-pyranocyanidin-3-O-glucoside] showed an SPF of 14.78 ± 0.02.
“Cyanidin-3-O-glucoside-4-vinylcatechol [V-A]” returned an SPF in series [1] of 24.00 ± 0.01.
Regarding “Malvidin-3-O-glucoside-4-vinylcatechol [V-B]”, in series [1], the SPF was determined as 10.02 ± 0.00.

Broadly, the MIC is the least concentration at which growth counts as inhibited. One may read the IC50 as the midpoint of a concentration-inhibition curve.
